Legend:
[1] = tested on: Ornithine Decarboxylase; conditions: prior-art epoxides; ODC induction in mouse epidermis by tumor-promoting phorbol esters; cited from earlier work
[2] = tested on: Ornithine Decarboxylase; test: Inhibition of induction of ornithine decarboxylase (ODC assay) by 12-O-tetradecanoylphorbol-13-acetate in mouse skin; format: in vivo; conditions: topical, 1 hour before TPA (17 nmol), CD-1 mice
Method: (§1) The ODC assay measures a compound's effect on the prevention of the induction of ODC. The tracheal organ culture assay measures a compound's ability to reverse keratinization. For comparison purposes retinoic acid was also tested by these assays.
The ODC assay is carried out as follows. Female Charles River CD-1 mice from Charles River Breeding Laboratories, Wilmington, Mass., are used (age 7 to 9 weeks). The dorsal hair of the mice is shaved 1 to 2 days before testing, and only mice showing no hair regrowth are used. […] The mice are killed by cervical dislocation five hours after TPA treatment. Determinations are done in triplicate.
The epidermis is obtained from the sacrificed animals. To obtain sufficient material, the dorsal skins from 2 to 3 mice in each treatment group are pooled. The depilatory agent Nudit® (Helena Rubinstein, New York) is applied to the shaved area of the skin; after 5 minutes, it is washed off thoroughly with cold tap water. Then the skin is excised and plunged immediately into ice-cold water; it is then placed in a 55° C. water bath for 30 seconds and reimmersed in ice-cold water for at least another 30 seconds.
The supernatant fraction remaining after centrifugation of the homogenate at 10,000×g for 30 seconds at 0° C. is used for the enzyme assay. Enzyme activity is determined using the microassay for ODC as described by Verma and Boutwell to measure the release of ^14 CO2 from DL-[1-^14 C]-ornithine (58 mCi/mmol) after incubation with the 10,000×g supernatant. The incubations are carried out by decanting, with a Pasteur pipette, 100 μL of the supernatant containing 100 to 120 μg of protein into two or three 15-mL Corex tubes in a shaking water bath at 37° C.

[3] = tested on: Hamster Tracheal Organ Culture; test: Reversal of keratinization in hamster tracheal organ culture; format: cell-based
Method: as §1
The tracheal organ culture assay is carried out as follows. Tracheas are taken from hamsters that are in very early stages of vitamin A deficiency and placed in organ culture. At the time of culture, the animals are still gaining weight; the tracheal epithelium is generally low columnar or cuboidal, with only occasional patches of squamous metaplasia. […] All tracheas are grown in medium containing no retinoid for the first 3 days. […] Culture medium is changed three times a week, and all of the remaining tracheas are harvested at the end of 10 days in culture. Tracheas are fixed in 10% buffered formalin and embedded in paraffin.

| Structure (SMILES) | biological activity in the ornithine decarboxylase (ODC) assay [1] | % Inhibition of Control (inhibition of induction of ornithine decarboxylase by TPA in mouse skin) ([2]; dose 17 nmol) | Active Cultures (%) (reversal of keratinization) ([3]; conc 10^-8 M) | Active/Total Cultures (reversal of keratinization) ([3]; conc 10^-8 M) | Active Cultures (%) (reversal of keratinization) ([3]; conc 10^-9 M) | Active/Total Cultures (reversal of keratinization) ([3]; conc 10^-9 M) | Active Cultures (%) (reversal of keratinization) ([3]; conc 10^-10 M) | Active/Total Cultures (reversal of keratinization) ([3]; conc 10^-10 M) | Active Cultures (%) (reversal of keratinization) ([3]; conc 10^-11 M) | Active/Total Cultures (reversal of keratinization) ([3]; conc 10^-11 M) | % Inhibition of Control (inhibition of induction of ornithine decarboxylase by TPA in mouse skin) ([2]; dose 1.7 nmol) |
| --- | --- | --- | --- | --- | --- | --- | --- | --- | --- | --- | --- |
| CC(/C=C/C12OC1(C)CCCC2(C)C)=C\C=C\C(C)=C\C(=O)O (stereo not drawn) [5,6-epoxy-5,6-dihydroretinoic acid] | exhibited biological activity | – | – | – | – | – | – | – | – | – | – |
| CCOC(=O)c1ccc(/C=C(\C)C=CC23OC2(C)CCCC3(C)C)cc1 (stereo not drawn) [(E)-1-(4-carbethoxy)-2-methyl-4-(1,2-epoxy-2,6,6,-trimethylcyclohex-1-yl)-1,3-butadiene] | exhibited biological activity | – | – | – | – | – | – | – | – | – | – |
| CCOC(=O)c1ccc(/C=C(C)/C=C/C23CC2(C)CCCC3(C)C)cc1 (stereo not drawn) [(E)-1-(4-carbethoxyphenyl)-2-methyl-4-(2,2,6-trimethylbicyclo[4.1.0]hept-1-yl)-1,3-butadiene] | – | 80% | 100% | 7/7 | 77% | 10/13 | 29% | 4/14 | 29% | 2/7 | – |
| CC1=C(/C=C/C(C)=C/C=C/C(C)=C/C(=O)O)C(C)(C)CCC1 [(E)-retinoic acid, reference compound] | – | – | 100% | 236/236 | 88% | 419/474 | 52% | 134/256 | – | – | 87-91% |
| CCOC(=O)/C=C(C)/C=C/C=C(C)/C=C/C12CC1(C)CCCC2(C)C (stereo not drawn) [ethyl (E)-5,6-methano-5,6-dihydroretinoate] | – | 70% | 100% | 7/7 | 79% | 11/14 | 50% | 7/14 | 29% | 2/7 | – |
